Source: doi:10.1101/2024.01.18.576231v1 (biorxiv, 2024)

Experiments:
Assay type in all cases: binding
[1] = molecular target: T1, CRBN_ΔHBD (Homo sapiens, UniProt Q96SW2, INS193GNGNSG/DEL194-248); assay: fluorescence polarization, displacement of Cy5-thalidomide; settings: […] Cy5-thalidomide tracer, pH […]
[2] = molecular target: T1, CRBN_ΔHBD; assay: fluorescence polarization, direct titration; settings: labelled compound; […] tracer, pH […], RT
[3] = molecular target: CRBN:DDB1 complex (Homo sapiens, UniProt Q96SW2); assay: fluorescence polarization, direct titration; settings: labelled compound; […] tracer, pH […], RT
[4] = molecular target: CRBN_TBD (Homo sapiens, UniProt Q96SW2); assay: fluorescence polarization, direct titration; settings: labelled compound; […] tracer, pH […], RT

EC50 [1]	Molecule	further results
0.223 µM	COc1cccc2c1CN(C1CCC(=O)NC1=O)C2=O (stereo not shown) [Z2508929002]	
0.187 µM	Nc1c(O)ccc2c1C(=O)N(C1CCC(=O)NC1=O)C2=O (stereo not shown) [Z3269026162]	
0.193 µM	O=C1CCC(N2Cc3c(C=C4CCOC4)cccc3C2=O)C(=O)N1 (stereo not shown) [Z4223332422]	
0.218 µM	NC(=O)N1CCC(C#Cc2cccc3c2CN(C2CCC(=O)NC2=O)C3=O)CC1 (stereo not shown) [Z4999915373]	
0.257 µM	Cc1nn(CCO)cc1CNc1ccc2c(c1)CN(C1CCC(=O)NC1=O)C2=O (stereo not shown) [Z5000207375]	
0.197 µM	COc1nccnc1CNc1ccc2c(c1)CN(C1CCC(=O)NC1=O)C2=O (stereo not shown) [Z5000208878]	
0.151 µM	COc1cc(N)cnc1-c1ccc2c(c1)CN(C1CCC(=O)NC1=O)C2=O (stereo not shown) [Z5000467358]	
	Cy5-conjugated thalidomide	Kd [2]: 0.013 µM; Kd [3]: 0.0041 µM; Kd [4]: 5 µM
